According to patent publication US20210361563A1, “TRANSDERMAL SYSTEM FOR SYNERGISTIC IMMUNE-CHEMOTHERAPY USING MICRONEEDLES AND METHOD OF TREATMENT THEREOF” (THE UNIVERSITY OF HONG KONG, priority 2020, published 2021):

Key:
[1] = tested on: CD4+ and CD8+ T-cells in tumor; assay: T-cell infiltration in tumor tissues by flow cytometry; format: in vivo, C3H/HeJ mice; conditions: tumor tissue after sacrifice
Protocol: (§1) To evaluate T-cell responses and the immune profile, tumor tissues and blood were harvested after sacrifice. aPD-1, being an ICB, could be a positive regulator of TILs. The infiltration of CD4+ T-cells and CD8+ T-cells into tumor cells was assessed through flow cytometry. […] To reveal the cellular mechanism in vivo, the production of IFN-γ and TNF-α was determined using ELISA kit in mice serum. […] (FIG. 5E)
A piece of tumor was collected from each mouse for flow cytometry. After execution, the tissues were rinsed with PBS and maintained in PBS at 4° C. The tumor tissues were sliced into very small pieces and sieved through 100 μm cell strainer (BD Falcon, USA). Subsequently, the sliced tissue was pressed using the plunger end of a syringe. The supernatant was decanted and the pellet resuspended the pellet in Flow Cytometry Staining Buffer (PBS plus 10% FBS). The solution was separated into two Eppendorf tubes with a volume of 300 μL, then 1 μL primary antibody was added into one of the two tubes individually. The three primary antibodies used were rabbit anti-CD4 (Abcam, Cambridge, Mass., USA), rat anti-CD8 (Abcam, USA), and mouse anti-foxp3 (Abcam,USA). […]

[2] = tested on: SCC VII-luc tumor homograft; assay: Ki-67 IHC cell proliferation in tumor tissue sections; format: in vivo, C3H/HeJ mice
Protocol: Cell proliferation was further confirmed through IHC in formalin-fixed paraffin-embedded tumor tissue sections. […] Tumor infiltrating lymphocytes (TILs) like CD4+ cells and CD8+ infiltrated the tumor tissue and started to proliferate after aPD-1 treatment. […] TILs attacked the tumor tissues and killed the tumor cells afterwards. Whether these proliferated cells were T-cells or tumor cells were further confirmed through flow cytometry. Additionally, tumor cell apoptosis was assessed through in situ TUNEL assay (FIG. 4B & 4D). […] In sum, aPD-1-CDDP-NPs MN can not only increase the amount of activated T-cells but also kill tumor cells.
(§2) Male and female C3H/HeJ mice were purchased from The Jackson Laboratory (Bar Harbor, Me., USA) and bred in the Laboratory Animal Unit in the University of Hong Kong. All animal procedures were performed in accordance with a protocol approved by the Committee on the Used of Live Animals in Teaching and Research (CULATR, HKU). […] The tumor size was monitored by both the bioluminescence signals and the Vernier calipers every 3 days. Tumor volume was calculated as 0.5× long diameter×short diameter^2. Tumor volume and tumor wet weight were also measured after sacrifice. Tumor proliferation was determined in sliced tumor tissues using anti-Ki67 (Abcam, USA) following the IHC protocol.

IFN-γ, TNF-α = assay: Serum IFN-γ and TNF-α ELISA; format: in vivo, C3H/HeJ mice
Protocol: as §1
Blood was collected from mice and maintained in anticoagulative tubes ([…]® Blood Collection Tubes, K3E K3EDTA, Greiner Bio-One International, Australia). Blood was centrifuged at 1500 g for 10 minutes at 4° C., then plasma was transferred into a new Eppendorf. After centrifugation at 2000 g for 15 mins at 4° C., the supernatant was collected to obtain the serum of mice. IFN-γ and TNF-α in the serum were detected using Mouse IFN-γ ELISA kit (Thermo Fisher Scientific, USA) and Mouse TNF-α ELISA kit (Thermo Fisher Scientific, USA), respectively.

[3] = tested on: SCC VII-luc tumor homograft; assay: Antitumor efficiency in immunocompetent murine tumor homograft model; format: in vivo, C3H/HeJ mice
Description: We further investigated tumor inhibition on an immunocompetent murine tumor homograft model. SCC VII cell lines were subcutaneously inoculated into the right flank of C3H/HeJ mice to obtain a superficial tumor. […] Tumor volume was monitored using a Vernier caliper before the treatment and 3 days after each treatment. Furthermore, tumor growth was double confirmed using bioluminescent images (FIG. 3A). […] The ineffective therapeutic role of aPD-1, however, may be due to the following reasons. First, the renovated T cells may be too exhausted that they display impaired effector function with limited proliferative potential ^26. Second, cancer antigens may be “masked”; therefore, they cannot be identified by T-cells ^27. Third, the tumor microenvironment may contain multiple inhibitory immune cells, such as tumor-associated macrophages, which overwhelm the T-cells into have adverse effects ^28. Although the exact reason was unclear, the animal model in this study was unresponsive to systemic aPD-1 immunotherapy.
as §2, with “HKU). An immunocompetent murine tumor homograft model was established by injecting 1×10^6 SCC VII-luc cells suspended in 100 μL Hanks' balanced salt solution (HBSS, Gibco, USA) on the right flank of the mouse. […] The treatments were administered once the tumor volume reached 10 mm^3 and each treatment was administered every 3 days and lasted for 3 cycles.” for “HKU).”

[4] = H&E staining of liver, lung, kidney and spleen; format: in vivo, C3H/HeJ mice
Description: Liver, lung, kidney and spleen of each group were collected after sacrifice for hematoxylin and eosin (H&E) staining to analyze whether drugs induced toxicity to these organs (FIG. 6C).
The livers, kidneys, spleens and lungs were collected after sacrifice and fixed in 4% PFA. After embedding into paraffin, the tissues were sliced into 5-μm sections for H&E staining. Images of the tissues were collected using a polarized light microscope (ECLIPSE LV100POL, Japan). The BUN and total IgG level in the serum were detected using a urea nitrogen detection kit (Thermo Fisher Scientific, USA) and a mouse IgG total ELISA kit (ThermoFisher Scientific, USA) respectively.

cell lines = assay: Cell apoptosis (APO-BrdU TUNEL) and cell cycle (PI) by flow cytometry; format: cell-based; conditions: Pt 100 μM, 4 h
Protocol: A large number of 3hydroxyl ends appeared when DNA strands became fragmented, and they were labeled with BrdUTP and terminal deoxynucleotidyl transferase (TdT) using the TUNEL technique. After DNA incorporation, BrdU could be detected through anti-BrdU antibody.
Cell apoptosis was detected using flow cytometry with the APO-BrdU™ tranferase dUTP nick end laveling (TUNEL) Assay Kit (Thermo Fisher Scientific, USA), and the phase of the cell cycle was determined using propidium iodide (PI, Thermo Fisher Scientific, USA) following the manufacturer's protocol. Cells were fixed with 1% paraformaldehyde (PFA) or ethanol before staining, and they were analyzed through flow cytometry (BD FACSVerse™, BD, Franklin Lake, N.J., USA) immediately after staining. All data were analyzed using FlowJo (7.6.1, BD, USA).

Structure (SMILES): N.N.[Cl][Pt][Cl] [CDDP, cis-Diammineplatinum(II)dichloride]
- CD8+ T-cells among tumor cells [1]: 4.478%
- cells continuing to proliferate (Ki-67) [2]: 25%
- IFN-γ level in serum (IFN-γ, TNF-α): lower IFN-γ levels than other five groups
- antitumor effect (in words) ([3]; SCC VII homograft, three treatments): limited treatment efficacy
- tumor volume compared to control group (in words) ([3]; mouse, in vivo): no difference
- tumor weight compared to control group (in words) ([3]; mouse, in vivo): significantly reduced
- kidney histology (H&E) ([4]; kidney): severe toxic tubular necrosis
- liver histology (H&E) ([4]; liver): some alterations were found in the liver parenchyma
- lung histology (H&E) ([4]; lung): diffuse damage of the pulmonary alveoli and severe inflammatory infiltration
- spleen histology (H&E) ([4]; spleen): white pulp was evidently reduced
- cell apoptosis (cell lines): 2.79%
